Results from US12582632B2, “Inhibition of neurological injuries due to infections via administration of Butanetap and analogs thereof” (priority 2021, dated 2026).

What was measured:
[1] = system: APP, Tau, αSYN and inflammatory markers in CSF; experiment: MCI subjects proof of mechanism study, CSF markers before and after 10 days; type: in vivo, human
From the text: Three Phase I clinical studies have established butanetap's safety. […] Therefore, we conclude that a much lower single daily butanetap dose would be effective in the proposed study.

[2] = system: immortalized Mouse Microglia (SIM-A9); experiment: Gingipain cytotoxicity on microglia, AlamarBlue viability; type: cell-based; details: 48 hours, between 1 and 10 nM
Procedure: Immortalized Mouse Astrocytes—SV40T (IMA2.1), immortalized Mouse Microglia (SIM-A9) and immortalized neuroblastoma (SH-SY5Y) cells were infected for 48 hours with gingipains HRgpA and RgpB (arginine gingipains), and Kgp (lysine-specific cysteine proteinase—Lys-gingipain, KGP). After 48 hours the cells were assessed for viability with the AlamarBlue assay and the percentage of dead or alive cells versus control was plotted. […] As expected, since neither are dying, […]. […] Therefore, we expect the efficacious buntanetap dose to fight P. gingivalis infection to be the same as to treat Alzheimer's and Parkinson's disease has no impact on the microglia or neuroblastoma survival in the presence of gingipains.

rat acute glaucoma model = experiment: Acute glaucoma model; type: in vivo
From the text: Butanetap's efficacy in treating neurodegeneration in animal models: Restored memory and learning in an APP/PS1 transgenic (tg) mouse model of AD; Restored memory and learning in a Ts65dn mouse model of Down syndrome (DS) [W. Mobley, UCSD, submitted 2020]; Preserved the retina in acute glaucoma [J Sundstrom; Hershey Medical School]; Restored colonic motility in a human SNCAA53T tg mouse model of PD (Kuo et. al., Am J Neurodegener Dis 2019; 8(1):1-15 www.AJND.us/ISSN:216 591X/AJND0086080: Translational inhibition of α-synuclein by Butanetap (Posiphen) normalizes distal colon motility in transgenic Parkinson mice); Preserved memory and learning in traumatic brain injury rats (M-F Chesselet, submitted 2020).
Butanetap's reversal of the neurotoxic cascade: Butanetap's mechanism of action is related to APP, Tau, and aSYN expression being regulated by RP1 and by iron and the way these proteins contribute to neurodegeneration by accumulating as toxic aggregates that impair axonal transport and synaptic transmission, causing inflammation, and, finally, leading to nerve cell death (as described previously).

alpha-synuclein = alpha-synuclein in gut in vivo, PD A53T mice, Western blot
Procedure: • A. FIG. 5, alpha-synuclein in vitro. […] On the left is a Western blot showing butanetap inhibition of aSYN in relation to Actin standard at concentrations of 0, 0.1, 1, 5 and 10 μM and on the right a graph showing the same data plotted for statistical analysis purposes. • B. FIG. 6, alpha-synuclein brain in vivo. […] The animals were only treated for 2 weeks, so in brain it takes butanetap only 2 weeks to lower levels of alpha-synuclein. • C. FIG. 7, alpha-synuclein in gut in vivo. Gut levels of aSYN following treatment of PD A53T mice with 10 mg/kg for 21 weeks and 21 days reduced αSYN levels in the gut as shown by Western Blot.

CN1CC[C@]2(C)c3cc(OC(=O)Nc4ccccc4)ccc3N(C)C12 (stereo partly drawn) [butanetap, (3aR)-1,3a,8-trimethyl-1,2,3,3a,8,8a-hexahydropyrrolo[2,3-b]indol-5-yl phenylcarbamate]
aggregating proteins (APP/Aβ, tau/phospho-tau, alpha-synuclein) in CSF ([1]; MCI subjects, 10 days of administration, FIG. 8): normalized | inflammation ([1]; human CSF of MCI subjects): lowered | microglia survival in the presence of gingipains [2]: no impact | retina (rat acute glaucoma model; acute glaucoma): Preserved | nerve cells (rat acute glaucoma model; rat acute glaucoma model): protected | reduction of alpha-synuclein levels in the gut (alpha-synuclein; 10 mg/kg for 21 weeks, p<0.05, FIG. 7): 50.6% | significant reduction of alpha-synuclein levels in the gut (alpha-synuclein; 10 mg/kg for 21 days): not at 21 days
